As usually defined, the inhibition is the relative decrease from the control value, in per cent.

The subject of experiment [1] is Colletotrichum gossypii. Put plainly: Fungal growth inhibition, treated disc on agar (COL GOS). The class given is cell-based. The note with it: disc dipped in 500 mg/l, 29° C.; for inhibition at 500 µg/mL: Colletotrichum gossypii, read-out: Percent Growth Inhibition, COL GOS.
Experiment [2] relates to Pyricularia oryzae. Put plainly: whole plant or invertebrate. The class given is in vivo. The note with it: for pest or weed control at 1000 µg/mL: Pyricularia oryzae, in Hordeum vulgare, foliar, 216 h, read-out: Percent Reduction of Disease, PYR ORY, barley, foliar, 1,000 mg/l; for Percent Reduction of Disease, PYR ORY: barley, foliar, 1,000 mg/l.
The subject of experiment [3] is Botrytis cinerea. Put plainly: Fungal growth inhibition, treated disc on agar (BOT CIN). The class given is cell-based. The note with it: disc dipped in 500 mg/l, 29° C.; for inhibition at 500 µg/mL: Botrytis cinerea, read-out: Percent Growth Inhibition, BOT CIN.
For experiment [4], the system named is Uromyces phaseoli. Put plainly: Bean rust fungus eradicant test (URO PHA). The class given is in vivo. The note with it: pinto bean, eradicant spray 2 days after inoculation, 1,000 mg/l; for pest or weed control at 1000 µg/mL: Uromyces phaseoli, 216 h, read-out: Percent Reduction of Disease, URO PHA. In short, it runs like this:
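Seven-day-old pinto bean plants (Phaseolus vulgaris, primary leaf) were inoculated with 20,000 spores/ml, held 24 h at 99% humidity and 21° C., then sprayed two days post-inoculation with acetone/TWEEN 20 emulsions at 1,000 mg/l. After nine days in a 21° C. greenhouse, disease was scored as percent reduction versus unsprayed controls.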

Experiment [5] has as its system Septoria nodorum. Kind of experiment: Fungal growth inhibition, treated disc on agar (SEP NOD). The note with it: disc dipped in 500 mg/l, 29° C.; for inhibition at 500 µg/mL: Parastagonospora nodorum, read-out: Percent Growth Inhibition, SEP NOD. In kind it is cell-based.
Source text: (§2) Filter paper discs, each 11 mm. in diameter, were dipped in each of the test solutions. The discs were allowed to air dry to drive off the acetone solvent. A number of untreated discs were used as controls.
(§3) The treated and untreated discs were then placed on agar plates and one of the following fungus species: Septoria nodorum (SEP NOD), Botrytis cinerea (BOT CIN), Fusarium oxysporum (FUS OXY), Pythium ultimum (PYT ULT), Rhizoctonia solani (RHI SOL), Colletotrichum gossypii (COL GOS), and Scierotinia minor (SCL MIN), was added to the center of each disc in the form of a culture plug with the fungus mat in contact with the paper of the test disc. Cercosporidium personatum (CER PER), was added to discs as a spore suspension (20,000 spores/ml) to the disc (two drops of spore suspension per disc), rather than a mycelial culture plug. The plates were then incubated at 29° C. in an oven.
(§4) With the exception of the discs containing Cercosporidium personatum, the discs were evaluated by first measuring the radius from the center of the fungus colony on the treated discs and on the untreated discs. Percent growth inhibition of each of the compounds tested was determined as a function of the difference between the radius of the fungus colony on the treated disc versus the radius of the fungus colony on the untreated disc.
Experiment [6] concerns Pythium ultimum. Kind of experiment: Fungal growth inhibition, treated disc on agar (PYT ULT). As to conditions: disc dipped in 500 mg/l, 29° C.; for inhibition at 500 µg/mL: Globisporangium ultimum, read-out: Percent Growth Inhibition, PYT ULT. In kind it is cell-based.
Source text: as §2, §3, §4
For experiment [7], the system named is Erysiphe polygoni. Kind of experiment: Powdery mildew on pinto bean, foliar application (ERY POL). As to conditions: similar procedure as barley (1,000 mg/l); for pest or weed control at 1000 µg/mL: Erysiphe polygoni, read-out: Percent Reduction of Disease, ERY POL. The class given is in vivo. In short, it runs like this:
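Pinto bean plants sprayed with compound emulsion (acetone or inert solvent, TWEEN 20, water) at 1,000 mg/l, or left unsprayed, dried, then inoculated with Erysiphe polygoni spores in a 21° C greenhouse. Disease scored; percent control computed against untreated controls.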

The subject of experiment [8] is Scierotinia minor. Kind of experiment: Fungal growth inhibition, treated disc on agar (SCL MIN). In kind it is cell-based. As to conditions: disc dipped in 500 mg/l, 29° C.; for inhibition at 500 µg/mL: read-out: Percent Growth Inhibition, SCL MIN.
Source text: as §2, §3, §4
In experiment [9] the test system is Erysiphe cichoracearum. Kind of experiment: Powdery mildew of cucumber, systemic root uptake (CMS). The class given is in vivo. The note with it: 45 ml of 250 mg/l, 8 days after inoculation. In short, it runs like this:
(§1)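 Pot soil of barley (BMS) and cucumber (CMS) plants was drenched with 45 ml of a 250 mg/l acetone/Tween 20 aqueous emulsion, with untreated plants as controls. Disease was scored on a rating scale that included intermediate grades.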

Experiment [10] deals with Fusarium oxysporum. Put plainly: Fungal growth inhibition, treated disc on agar (FUS OXY). In kind it is cell-based. The note with it: disc dipped in 500 mg/l, 29° C.; for inhibition at 500 µg/mL: Fusarium oxysporum, read-out: Percent Growth Inhibition, FUS OXY.
Experiment [11] has as its system Erysiphe graminis. Put plainly: Powdery mildew of barley, systemic root uptake (BMS). The class given is in vivo. The note with it: 45 ml of 250 mg/l, 8 days after inoculation. In short, it runs like this: as §1

Take `CC(C)=CCC(C#N)(CCc1ccc(F)cc1)c1cccnc1` (centres unmarked) [Compound 47]: the inhibition at 500 µg/mL in experiment [1] is 100%; in experiment [3], 100%; in experiment [5], 100%; in [6] it was 100%; in [8], 100%; in experiment [10], 50%. Also, the values for the pest or weed control at 1000 µg/mL in experiment [2], in experiment [4] and in experiment [7] were 0%, 33% and 90%, respectively. For the same molecule, the “Percent Reduction of Disease, CMS” value in experiment [9] amounted to 0%. Further, in experiment [11], the “Percent Reduction of Disease, BMS” value is 0%.
`COc1ccc(CCC(C#N)(CC=C(C)C)c2cccnc2)cc1` (centres unmarked) [Compound 48]: the inhibition at 500 µg/mL in experiment [1] stood at 100%; in [3] it was 100%; in experiment [5], 100%; in [6], 53%; in experiment [8], 100%; in [10], 100%. Also, the pest or weed control at 1000 µg/mL in experiment [2] came to 33%; in [4] it was 83%; in [7] it was 90%. For the same molecule, the “Percent Reduction of Disease, CMS” value in [9] is on record as 0%. Besides, the “Percent Reduction of Disease, BMS” value in [11] turned out to be 0%.
Turning to `CC(C)CCC(C#N)(CCc1ccc(F)cc1)c1cccnc1` (centres unmarked) [Compound 49], in experiment [1], the “Percent Growth Inhibition, COL GOS” value worked out at 100%. The “Percent Reduction of Disease, PYR ORY” value in [2] was 17%. Moreover, in experiment [3], the “Percent Growth Inhibition, BOT CIN” value is 100%. In addition, the “Percent Reduction of Disease, URO PHA” value in experiment [4] is recorded as 83%. Also, in experiment [5], the “Percent Growth Inhibition, SEP NOD” value is listed as 100%. Also, the “Percent Growth Inhibition, PYT ULT” value in experiment [6] came out at 76%. For the same molecule, the pest or weed control at 1000 µg/mL in [7] came out at 90%. In addition, in [8], the “Percent Growth Inhibition, SCL MIN” value was 100%. Besides, the “Percent Reduction of Disease, CMS” value in experiment [9] was determined as 0%. Further, the inhibition at 500 µg/mL in experiment [10] was 65%. In [11], the “Percent Reduction of Disease, BMS” value came to 0%.
As to `COCC(C#N)(CCc1ccc(OC)cc1)c1cccnc1` (centres unmarked) [Compound 50], the inhibition at 500 µg/mL was determined as 100% in experiment [1]; 0% in experiment [3]; 100% in experiment [5]; 10% in experiment [6]; 100% in [8]; 100% in experiment [10]. The figures for the pest or weed control at 1000 µg/mL in experiment [2], in experiment [4] and in [7] were 0%, 90% and 100%, respectively. For the same molecule, the “Percent Reduction of Disease, CMS” value in experiment [9] is on record as 0%. Moreover, the “Percent Reduction of Disease, BMS” value in [11] is reported as 0%.
Turning to `COCC(C#N)(CCc1ccc(F)cc1)c1cccnc1` (centres unmarked) [Compound 51], the inhibition at 500 µg/mL was found to be 100% in experiment [1]; 100% in experiment [3]; 100% in experiment [5]; 0% in experiment [6]; 100% in experiment [8]; 100% in experiment [10]. The pest or weed control at 1000 µg/mL in experiment [2] turned out to be 20%; in experiment [4] it was 20%; in [7], 85%. Besides, in [9], the “Percent Reduction of Disease, CMS” value turned out to be 0%. In addition, the “Percent Reduction of Disease, BMS” value in experiment [11] is reported as 90%.
For `N#CC(CCc1ccc(F)cc1)(CC(F)(F)F)c1cccnc1` (centres unmarked) [Compound 52], the inhibition at 500 µg/mL in experiment [1] came out at 100%; in experiment [3], 100%; in experiment [5], 100%; in experiment [6], 0%; in [8] it was 100%; in experiment [10], 100%. The pest or weed control at 1000 µg/mL in experiment [2] worked out at 90%; in experiment [4], 70%; in experiment [7], 100%. In addition, the “Percent Reduction of Disease, CMS” value in [9] stood at 85%. Besides, the “Percent Reduction of Disease, BMS” value in experiment [11] was 100%.
Take `N#CC(CCF)(CCc1ccc(F)cc1)c1cccnc1` (centres unmarked) [Compound 53]: the inhibition at 500 µg/mL was determined as 100% in [1]; 100% in [3]; 100% in experiment [5]; 5% in experiment [6]; 100% in experiment [8]; 100% in [10]. Also, the pest or weed control at 1000 µg/mL in experiment [2] is 70%; in [4], 0%; in [7], 90%. For the same molecule, the “Percent Reduction of Disease, CMS” value in [9] was 0%. Besides, the “Percent Reduction of Disease, BMS” value in experiment [11] is reported as 100%.
As for `CCCCOc1ccc(CCC(C#N)(CCCC)c2cccnc2)cc1` (centres unmarked) [Compound 54], the inhibition at 500 µg/mL in experiment [1] came to 100%; in experiment [3], 100%; in experiment [5], 100%; in [6], 5%; in experiment [8], 100%; in experiment [10], 100%. Besides, the pest or weed control at 1000 µg/mL in [2] amounted to 90%; in experiment [4], 35%; in [7], 90%. In addition, in [9], the “Percent Reduction of Disease, CMS” value was found to be 0%. For the same molecule, in experiment [11], the “Percent Reduction of Disease, BMS” value is reported as 0%.
Regarding `CC(C)CCC(C#N)(CCc1ccc(F)cc1)c1cccnc1` (centres unmarked) [Compound 55], the “Percent Growth Inhibition, COL GOS” value in experiment [1] was 30%. Also, the “Percent Reduction of Disease, PYR ORY” value in experiment [2] turned out to be 70%. Also, in experiment [3], the “Percent Growth Inhibition, BOT CIN” value is recorded as 40%. The “Percent Reduction of Disease, URO PHA” value in [4] is recorded as 0%. Further, in experiment [5], the “Percent Growth Inhibition, SEP NOD” value is listed as 10%. Moreover, the “Percent Growth Inhibition, PYT ULT” value in [6] amounted to 20%. The “Percent Reduction of Disease, ERY POL” value in experiment [7] was determined as 85%. For the same molecule, the “Percent Growth Inhibition, SCL MIN” value in experiment [8] is given as 55%. Also, in experiment [9], the “Percent Reduction of Disease, CMS” value is given as 0%. For the same molecule, the “Percent Growth Inhibition, FUS OXY” value in experiment [10] was 65%. For the same molecule, the “Percent Reduction of Disease, BMS” value in experiment [11] worked out at 75%.
As to `C=CCC(C#N)(CCc1ccc(OCCCC)cc1)c1cccnc1` (centres unmarked) [Compound 56], the inhibition at 500 µg/mL worked out at 35% in experiment [1]; 100% in [3]; 40% in experiment [5]; 5% in [6]; 45% in [8]; 60% in experiment [10]. The pest or weed control at 1000 µg/mL was found to be 90% in experiment [2], 0% in experiment [4] and 90% in experiment [7]. Also, the “Percent Reduction of Disease, CMS” value in [9] amounted to 0%. Besides, the “Percent Reduction of Disease, BMS” value in [11] amounted to 0%.
Turning to `CCCCOc1ccc(CCC(C#N)(CCC)c2cccnc2)cc1` (centres unmarked) [Compound 57], the inhibition at 500 µg/mL in experiment [1] was 15%; in experiment [3], 30%; in experiment [5] it was 40%; in experiment [6] it was 5%; in experiment [8], 65%; in [10], 55%. The pest or weed control at 1000 µg/mL amounted to 100% in experiment [2], 0% in [4] and 90% in experiment [7]. Moreover, the “Percent Reduction of Disease, CMS” value in [9] was 0%. Also, the “Percent Reduction of Disease, BMS” value in experiment [11] was 0%.
On to `CCCCOc1ccc(CCC(C#N)(CC(C)C)c2cccnc2)cc1` (centres unmarked) [Compound 58], for which the inhibition at 500 µg/mL in experiment [1] came to 15%; in experiment [3] it was 10%; in experiment [5] it was 70%; in experiment [6], 0%; in experiment [8], 75%; in experiment [10], 40%. In addition, the pest or weed control at 1000 µg/mL in experiment [2] came to 85%; in experiment [4] it was 0%; in experiment [7], 85%. The “Percent Reduction of Disease, CMS” value in experiment [9] amounted to 0%. In addition, in experiment [11], the “Percent Reduction of Disease, BMS” value was found to be 0%.
In the case of `CC=CCC(C#N)(CCc1ccc(F)cc1)c1cccnc1` (centres unmarked) [Compound 59], the inhibition at 500 µg/mL in [1] is 100%; in [3] it was 100%; in experiment [5] it was 100%; in experiment [6] it was 5%; in [8], 70%; in experiment [10], 100%. Further, the pest or weed control at 1000 µg/mL in [2] is 85%; in experiment [4], 35%; in experiment [7], 90%. Besides, in experiment [9], the “Percent Reduction of Disease, CMS” value is recorded as 0%. For the same molecule, the “Percent Reduction of Disease, BMS” value in experiment [11] is 75%.

(Values after patent US5945436A, “Pyridylmethyl nitriles, amides and thioamides useful as fungicides” (Uniroyal Chemical Company, Inc., priority 1997, dated 1999).)
